Data on four sequences can be found in US20070128217A1 (priority 2003, published 2007).

For assay [1], the system named is control sera (pooled serum of ten healthy LUMC hospital workers; commercial negative donor pooled serum from the Dutch bloodbank). The format is binding, human. Set-up: Binding of Control serum LUMC to linear peptides / Binding of Control serum Blood-bank to linear peptides / Binding of Control serum LUMC to looped peptides / Binding of Control Serum Blood-Bank to Looped peptides / Binding of Control serum LUMC to linear peptides of the protein M of SARS-CoV Urbani / Binding of Control serum Blood-bank to linear peptides of the protein M of SARS-CoV Urbani / Binding of Control serum LUMC to looped peptides of the protein M of SARS-CoV Urbani / Binding of Control Serum Blood-Bank to Looped peptides of the protein M of SARS-CoV Urbani: unit not given here.

The subject of assay [2] is antibodies in sera from SARS patients (sera 1a, 1b, 2, 6, 37, 62, London, SARS-yellow, SARS-green). The format is binding, human. Also noted: Binding of serum 6 to linear peptides of protein X1 of SARS-CoV Urbani / Binding of serum 37 to linear peptides of protein X1 of SARS-CoV Urbani / Binding of serum 6 to looped/cyclic peptide (PEPSCAN-ELISA) / Binding of serum 37 to looped/cyclic peptide (PEPSCAN-ELISA) / Binding of serum 37 to looped/cyclic peptides of protein X1 of SARS-CoV Urbani / Binding of serum 6 to linear peptides of protein X2 / Binding of serum 37 to linear peptides of protein X2 / Binding of serum 37 to looped/cyclic peptides of protein X2 of SARS-CoV Urbani / Binding of serum 6 to linear peptides of protein M of SARS-CoV Urbani / Binding of serum 37 to linear peptides of protein M of SARS-CoV Urbani / Binding of serum 6 to looped/cyclic peptides of protein M of SARS-CoV Urbani / Binding of serum 37 to looped/cyclic peptides of protein M of SARS-CoV Urbani / Binding of serum 6 to linear peptides of protein X3 of SARS-CoV Urbani / Binding of serum 37 to linear peptides of protein X3 of SARS-CoV Urbani / Binding of serum 37 to looped/cyclic peptides of protein X3 of SARS-CoV Urbani / Binding of serum 6 to linear peptides of protein X4 of SARS-CoV Urbani / Binding of serum 37 to linear peptides of protein X4 of SARS-CoV Urbani / Binding of serum 37 to looped/cyclic peptides of protein X4 of SARS-CoV Urbani / Binding of serum 6 to linear peptides of protein X5 of SARS-CoV Urbani / Binding of serum 37 to linear peptides of protein X5 of SARS-CoV Urbani / Binding of serum 37 to looped/cyclic peptides of protein X5 of SARS-CoV Urbani / Binding of serum 6 to linear peptides of protein N of SARS-CoV Urbani / Binding of serum 37 to linear peptides of protein N of SARS-CoV Urbani / Binding of serum 6 to linear peptide (PEPSCAN-ELISA) / Binding of serum 1a to looped/cyclic peptides of protein N of SARS-CoV Urbani / Binding of serum 1b to looped/cyclic peptides of protein N of SARS-CoV Urbani / Binding of serum 2 to looped/cyclic peptides of protein N of SARS-CoV Urbani / Binding of serum 6 to looped/cyclic peptides of protein N of SARS-CoV Urbani / Binding of serum 37 to looped/cyclic peptides of protein N of SARS-CoV Urbani / Binding of serum 62 to looped/cyclic peptides of protein N of SARS-CoV Urbani / Binding of serum London to looped/cyclic peptides of protein N of SARS-CoV Urbani / Binding of serum SARS-green to looped/cyclic peptides of protein N of SARS-CoV Urbani: unit not given here.

For assay [3], the system named is rabbit serum obtained by immunizing a rabbit with the SARS-CoV strain Frankfurt 1. The format is binding. Also noted: Binding of a rabbit serum to linear peptides / Binding of a rabbit serum to looped peptides / Rabbit serum linear peptides / Rabbit serum looped peptides / Binding of a rabbit serum to linear peptides of protein N of SARS-CoV Urbani (Rabbit serum linear peptides) / Binding of a rabbit serum to looped/cyclic peptides of protein N of SARS-CoV Urbani (Rabbit serum looped peptides): unit not given here.

Turning to QTAAFRDVLVVLNKR, in assay [1], the “Binding of Control Serum Blood-Bank to Looped peptides” value turned out to be 0.7, the “Binding of Control serum Blood-bank to linear peptides” value came out at 0.6, the “Binding of Control serum LUMC to linear peptides” value came to 0.8 and the “Binding of Control serum LUMC to looped peptides” value is recorded as 0.5. Moreover, in assay [2], the “Binding of serum 1a to linear peptides of protein X5 of SARS-CoV Urbani” value is 0.5, the “Binding of serum 1a to looped/cyclic peptides of protein X5 of SARS-CoV Urbani” value is 0.6, the “Binding of serum 1b to linear peptides of protein X5 of SARS-CoV Urbani” value worked out at 0.5 and the “Binding of serum 1b to looped/cyclic peptides of protein X5 of SARS-CoV Urbani” value is 0.5. In addition, in assay [2], the “Binding of serum 2 to linear peptides of protein X5 of SARS-CoV Urbani” value stood at 0.6, the “Binding of serum 2 to looped/cyclic peptides of protein X5 of SARS-CoV Urbani” value is listed as 0.6, the “Binding of serum 6 to linear peptides of protein X5 of SARS-CoV Urbani” value worked out at 0.6 and the “Binding of serum 6 to looped/cyclic peptides of protein X5 of SARS-CoV Urbani” value is on record as 0.8. In assay [2], the “Binding of serum 37 to linear peptides of protein X5 of SARS-CoV Urbani” value is 0.5, the “Binding of serum 37 to looped/cyclic peptides of protein X5 of SARS-CoV Urbani” value was determined as 0.6, the “Binding of serum 62 to linear peptides of protein X5 of SARS-CoV Urbani” value is on record as 0.4 and the “Binding of serum 62 to looped/cyclic peptides of protein X5 of SARS-CoV Urbani” value came out at 0.6. Further, in assay [2], the “Binding of serum London to linear peptides of protein X5 of SARS-CoV Urbani” value turned out to be 0.5, the “Binding of serum London to looped/cyclic peptides of protein X5 of SARS-CoV Urbani” value is listed as 0.5, the “Binding of serum SARS-green to linear peptides of protein X5 of SARS-CoV Urbani” value is reported as 0.2 and the “Binding of serum SARS-green to looped/cyclic peptides of protein X5 of SARS-CoV Urbani” value came out at 0.3. Moreover, in assay [2], the “Binding of serum SARS-yellow to linear peptides of protein X5 of SARS-CoV Urbani” value was 0.6 and the “Binding of serum SARS-yellow to looped/cyclic peptides of protein X5 of SARS-CoV Urbani” value is 0.4. In assay [3], the “Rabbit serum linear peptides” value amounted to 0.4 and the “Rabbit serum looped peptides” value came to 0.5.
In the case of QTCTPNVTINCQDPA, in assay [1], the “Binding of Control Serum Blood-Bank to Looped peptides” value is 0.4, the “Binding of Control serum Blood-bank to linear peptides” value was 0.6, the “Binding of Control serum LUMC to linear peptides” value is 0.4 and the “Binding of Control serum LUMC to looped peptides” value is on record as 0.3. Also, in assay [2], the “Binding of serum 1a to linear peptides of protein X5 of SARS-CoV Urbani” value stood at 0.8, the “Binding of serum 1a to looped/cyclic peptides of protein X5 of SARS-CoV Urbani” value turned out to be 0.4, the “Binding of serum 1b to linear peptides of protein X5 of SARS-CoV Urbani” value came to 0.7 and the “Binding of serum 1b to looped/cyclic peptides of protein X5 of SARS-CoV Urbani” value came out at 0.1. In addition, in assay [2], the “Binding of serum 2 to linear peptides of protein X5 of SARS-CoV Urbani” value was 0.6, the “Binding of serum 2 to looped/cyclic peptides of protein X5 of SARS-CoV Urbani” value stood at 0.3, the “Binding of serum 6 to linear peptides of protein X5 of SARS-CoV Urbani” value turned out to be 0.8 and the “Binding of serum 6 to looped/cyclic peptides of protein X5 of SARS-CoV Urbani” value is on record as 0.2. Also, in assay [2], the “Binding of serum 37 to linear peptides of protein X5 of SARS-CoV Urbani” value is given as 0.8, the “Binding of serum 37 to looped/cyclic peptides of protein X5 of SARS-CoV Urbani” value is on record as 0.3, the “Binding of serum 62 to linear peptides of protein X5 of SARS-CoV Urbani” value was determined as 0.8 and the “Binding of serum 62 to looped/cyclic peptides of protein X5 of SARS-CoV Urbani” value stood at 0.2. Also, in assay [2], the “Binding of serum London to linear peptides of protein X5 of SARS-CoV Urbani” value is listed as 0.9, the “Binding of serum London to looped/cyclic peptides of protein X5 of SARS-CoV Urbani” value was 0.1, the “Binding of serum SARS-green to linear peptides of protein X5 of SARS-CoV Urbani” value is recorded as 0.8 and the “Binding of serum SARS-green to looped/cyclic peptides of protein X5 of SARS-CoV Urbani” value stood at 0.0. Further, in assay [2], the “Binding of serum SARS-yellow to linear peptides of protein X5 of SARS-CoV Urbani” value amounted to 0.1 and the “Binding of serum SARS-yellow to looped/cyclic peptides of protein X5 of SARS-CoV Urbani” value came to 0.1. For the same sequence, in assay [3], the “Rabbit serum linear peptides” value is on record as 0.3 and the “Rabbit serum looped peptides” value was found to be 0.0.
Regarding QWIQFMMSRRRLLAC, in assay [1], the “Binding of Control Serum Blood-Bank to Looped peptides” value turned out to be 0.3, the “Binding of Control serum Blood-bank to linear peptides” value is reported as 0.8, the “Binding of Control serum LUMC to linear peptides” value was 0.5 and the “Binding of Control serum LUMC to looped peptides” value is given as 0.4. In addition, in assay [2], the “Binding of serum 1a to linear peptides of protein X2” value was 0.7, the “Binding of serum 1a to looped/cyclic peptides of protein X2 of SARS-CoV Urbani” value is 0.5, the “Binding of serum 1b to linear peptides of protein X2” value is listed as 0.5 and the “Binding of serum 1b to looped/cyclic peptides of protein X2 of SARS-CoV Urbani” value is listed as 0.4. In assay [2], the “Binding of serum 2 to linear peptides of protein X2” value was 0.5, the “Binding of serum 2 to looped/cyclic peptides of protein X2 of SARS-CoV Urbani” value came to 0.3, the “Binding of serum 6 to linear peptides of protein X2” value worked out at 0.7 and the “Binding of serum 6 to looped/cyclic peptides of protein X2 of SARS-CoV Urbani” value was 0.3. In assay [2], the “Binding of serum 37 to linear peptides of protein X2” value came to 0.6, the “Binding of serum 37 to looped/cyclic peptides of protein X2 of SARS-CoV Urbani” value turned out to be 0.5, the “Binding of serum 62 to linear peptides of protein X2” value was found to be 0.6 and the “Binding of serum 62 to looped/cyclic peptides of protein X2 of SARS-CoV Urbani” value was found to be 0.5. Also, in assay [2], the “Binding of serum London to linear peptides of protein X2” value was found to be 0.5, the “Binding of serum London to looped/cyclic peptides of protein X2 of SARS-CoV Urbani” value is on record as 0.2, the “Binding of serum SARS-green to linear peptides of protein X2” value is recorded as 0.5 and the “Binding of serum SARS-green to looped/cyclic peptides of protein X2 of SARS-CoV Urbani” value is reported as 0.4. Moreover, in assay [2], the “Binding of serum SARS-yellow to linear peptides of protein X2” value stood at 0.6 and the “Binding of serum SARS-yellow to looped/cyclic peptides of protein X2 of SARS-CoV Urbani” value came out at 0.4. For the same sequence, in assay [3], the “Binding of a rabbit serum to linear peptides” value was 1.0 and the “Binding of a rabbit serum to looped peptides” value is 2.0.
For the sequence QWNLVIGFLFLAWIM, in assay [1], the “Binding of Control Serum Blood-Bank to Looped peptides of the protein M of SARS-CoV Urbani” value came to 0.6, the “Binding of Control serum Blood-bank to linear peptides of the protein M of SARS-CoV Urbani” value is given as 0.7, the “Binding of Control serum LUMC to linear peptides of the protein M of SARS-CoV Urbani” value amounted to 0.3 and the “Binding of Control serum LUMC to looped peptides of the protein M of SARS-CoV Urbani” value came to 0.6. In addition, in assay [2], the “Binding of serum 1a to linear peptides of protein M of SARS-CoV Urbani” value is 0.7, the “Binding of serum 1a to looped/cyclic peptides of protein M of SARS-CoV Urbani” value came to 0.7, the “Binding of serum 1b to linear peptides of protein M of SARS-CoV Urbani” value was determined as 0.4 and the “Binding of serum 1b to looped/cyclic peptides of protein M of SARS-CoV Urbani” value was determined as 0.6. For the same sequence, in assay [2], the “Binding of serum 2 to linear peptides of protein M of SARS-CoV Urbani” value is recorded as 0.6, the “Binding of serum 2 to looped/cyclic peptides of protein M of SARS-CoV Urbani” value was 0.6, the “Binding of serum 6 to linear peptides of protein M of SARS-CoV Urbani” value came out at 0.4 and the “Binding of serum 6 to looped/cyclic peptides of protein M of SARS-CoV Urbani” value is on record as 0.6. In assay [2], the “Binding of serum 37 to linear peptides of protein M of SARS-CoV Urbani” value worked out at 0.7, the “Binding of serum 37 to looped/cyclic peptides of protein M of SARS-CoV Urbani” value is given as 0.5, the “Binding of serum 62 to linear peptides of protein M of SARS-CoV Urbani” value is recorded as 0.8 and the “Binding of serum 62 to looped/cyclic peptides of protein M of SARS-CoV Urbani” value is 0.7. For the same sequence, in assay [2], the “Binding of serum London to linear peptides of protein M of SARS-CoV Urbani” value stood at 0.3, the “Binding of serum London to looped/cyclic peptides of protein M of SARS-CoV Urbani” value is 0.2, the “Binding of serum SARS-green to linear peptides of protein M of SARS-CoV Urbani” value is 0.2 and the “Binding of serum SARS-green to looped/cyclic peptides of protein M of SARS-CoV Urbani” value is recorded as 0.3. Besides, in assay [2], the “Binding of serum SARS-yellow to linear peptides of protein M of SARS-CoV Urbani” value was determined as 0.1 and the “Binding of serum SARS-yellow to looped/cyclic peptides of protein M of SARS-CoV Urbani” value came to 0.8. Moreover, in assay [3], the “Rabbit serum linear peptides” value came out at 0.3 and the “Rabbit serum looped peptides” value turned out to be 0.3.
